What was measured:
Format in all cases: in vivo, rat
[1] = system: morphine self-administration; assay: intravenous morphine self-administration; conditions: 18-methoxycoronaridine 1 mg/kg i.p., dextromethorphan 5 mg/kg s.c.
Method: Dextromethorphan hydrobromide (5 mg/kg; Sigma/RBI, St. Louis, Mo.) was dissolved in saline and injected subcutaneously 20 minutes before testing. Mecamylamine hydrochloride (1 mg/kg; Sigma/RBI, St. Louis, Mo.) was dissolved in physiological saline and injected intraperitoneally 30 minutes before testing. All rats received two injections. For rats that received a single drug, half of them also received the appropriate saline/vehicle injection corresponding to each of the other two drugs.
Naive female Long-Evans derived rats (250 g; Charles River, N.Y.) were maintained on a normal 12 h light cycle (lights on at 7:00 a.m., lights off at 7:00 p.m.). For all experiments the “Principles of Laboratory Animal Care” (NIH publication No. 85-23, revised 1985, which is hereby incorporated by reference) were followed.
The intravenous self-administration procedure described in Glick et al., “18-MC Reduces Methamphetamine and Nicotine Self-administration in Rats,” NeuroReport 11:2013-2015 (2000) (“Glick I”), which is hereby incorporated by reference, was employed. Briefly, responses on either of two levers (mounted 15 cm apart on the front wall of each operant test cage) were recorded on an IBM compatible computer with a Med Associates, Inc. interface. The intravenous self-administration system consisted of polyethylene-silicone cannulas constructed according to the design of Weeks, “Long-term Intravenous Infusion,” pp. 155-168 in Myers (ed.), Methods in Psychobiology, Vol. 2, New York: Academic Press (1972) (“Weeks”), which is hereby incorporated by reference; Instech harnesses and swivels; and Harvard Apparatus infusion pumps (#55-2222). Shaping of the bar-press response was initially accomplished by training rats to bar-press for water. Cannulas were then implanted in the external jugular vein according to procedures described in Weeks, which is hereby incorporated by reference. Self-administration testing began with a 16-h nocturnal session followed by daily 1-h sessions, 5 days (Monday-Friday) a week. A lever-press response produced a 10 μl infusion of drug solution (0.01 mg of morphine sulfate) in about 0.2 s or a 50 μl infusion of drug solution (0.025 mg of methamphetamine sulfate) in about 1 s. Since all rats generally weighed 250±20 g, each response delivered approximately 0.04 mg/kg of morphine or 0.1 mg/kg of methamphetamine. Experiments to assess the effects of experimental treatments were begun when baseline self-administration rates stabilized (≦10% variation from one day to the next across 5 days), usually after 2 weeks of testing.
Each data point represents the mean (±S.E.M.) percent of baseline of 6-8 rats. Significant differences between baseline and treatment are indicated by an asterisk (paired t-test, P<0.01-0.001).
Each data point represents the mean (±S.E.M.) percent of baseline of 5-8 rats. Significant differences between baseline and treatment are indicated by an asterisk (paired t-test), P<0.05-0.01).

[2] = system: methamphetamine self-administration; assay: intravenous methamphetamine self-administration
responding for water = assay: bar-pressing (responding) for water; conditions: dose of 3 mg/kg, alone, data not shown
[3] = system: nicotine self-administration; assay: nicotine self-administration; conditions: Example 7, FIGS. 11-12: mecamylamine 0.1 mg/kg i.p., 18-methoxycoronaridine 0.5 mg/kg i.p., dextromethorphan 0.5 mg/kg s.c., bupropion 5 mg/kg i.p.; 5-8 rats

In the case of `CNC1(C)C2CCC(C2)C1(C)C` (stereo not drawn) [mecamylamine], the “effect on morphine self-administration (percent of baseline)” value ([1]; Example 5, FIG. 5: mecamylamine 1 mg/kg i.p., 6-8 rats) is reported as “none of the drugs administered alone, significantly decreased”, the “effect on morphine self-administration (percent of baseline)” value ([1]; Example 6, FIG. 8: mecamylamine 1 mg/kg i.p., bupropion 5 mg/kg i.p., 5-8 rats) is reported as “none of the drugs administered alone, significantly decreased” and the “effect on methamphetamine self-administration (percent of baseline)” value ([2]; Example 5, FIG. 6: mecamylamine 1 mg/kg i.p., 18-methoxycoronaridine 2 mg/kg i.p., dextromethorphan 5 mg/kg s.c., 6-7 rats) is reported as “none of the drugs administered alone, significantly decreased”. The “effect on methamphetamine self-administration (percent of baseline)” value ([2]; Example 6, FIG. 9: mecamylamine 1 mg/kg i.p., 18-methoxycoronaridine 5 mg/kg i.p., dextromethorphan 10 mg/kg s.c., bupropion 10 mg/kg i.p., 5-9 rats) was “none of the drugs administered alone, significantly decreased”, the “effect on responding for water” value (responding for water) was “decreases responding for water” and the “effect on nicotine self-administration (percent of baseline)” value [3] was “none of the drugs administered alone, significantly decreased”.

Reference: patent publication US6780871B2, “Methods and compositions for treating addiction disorders” (Albany Medical College, priority 2001, dated 2004)
